Measured values: patent US20220339122A1, “METHODS FOR THE TREATMENT OF DISEASES ASSOCIATED WITH DYSREGULATED ACTIVATION AND RECRUITMENT OF NEUTROPHILS” (Chang Gung University, priority 2021, published 2022)

Key:
[1] = Superoxide scavenging capacity, WST-1 reduction; assay type: biochemical; conditions: WST-1 reduction at 450 nm
Method: FIG. 1 Bletinib suppressed superoxide anion production in stimulated human neutrophils. Neutrophils (6×10^5 cells/mL) were incubated with 0.1% DMSO or […] bletinib for 5 min before activation with stimuli. Superoxide anion production was induced by (A) fMLF, (B) MMK-1, (C) NaF, or (D) PMA and then measured using ferricytochrome c reduction method. (E) Cytotoxicity was assessed using LDH release. (F) Superoxide scavenging capacity of bletinib was assessed in a xanthine/xanthine oxidase cell-free system. WST-1 reduction was measured through spectrophotometry at 450 nm, with 20 U/mL superoxide dismutase as the positive control.

[2] = system: BALB/c mice; test: LPS-induced ALI model in mice; assay type: in vivo; conditions: 25 mg/kg intraperitoneal
Method: A total of 24 male BALB/c mice were randomly divided into four groups (6 mice/group): vehicle alone, bletinib alone, LPS control, and bletinib treatment (bletinib+LPS). The mice were starved overnight and then intraperitoneally injected with 50 μL of bletinib (25 mg/kg) or 50 μL of vehicle (10% DMSO). ALI was induced through intratracheal spraying of 50 μL of LPS (from Escherichia coli O111:B4; 2 mg/kg) or 50 μL of 0.9% saline (in vehicle and bletinib alone group) under general anaesthesia with xylazine (6 mg/kg) and Zoletil 50 (30 mg/kg). Five hours later, mouse lungs were harvested after sacrifice and were frozen for myeloperoxidase (MPO) activity assay; they were also fixed with 10% formalin for histological sectioning and immunofluorescence staining.
The harvested lung tissues were washed with phosphate-buffered saline (PBS) and fixed with 10% formalin for 24 h. The samples were subsequently dehydrated, embedded with paraffin, sliced into 3-μm-thick sections with a microtome, and placed on glass slides. These sections were stained using haematoxylin and eosin (H&E) and corresponding antibodies. Then, images were acquired through light microscopy.
For immunofluorescence staining, tissue sections were incubated with antibodies against H3 (citH3; citrulline R2+R8+R17) and Ly6G at dilutions of 1:800 and 1:200, respectively. Anti-IgG secondary antibodies labelled with a fluorescent dye (Alexa Fluor 488 for citH3 or Alexa Fluor 568 for Ly6G) were used at dilutions of 1:1000 and 1:500, respectively. Immunofluorescence images were acquired through confocal microscopy (LSM 510 Meta, Zeiss).
The mouse lung tissues were suspended in a 0.5% hexadecyltrimethylammonium bromide buffer (pH 6.0) and then homogenised through sonication. To evaluate MPO activity, the MPO substrate buffer (containing PBS, 0.0005% hydrogen peroxide, and 0.2 mg/mL 0-dianisidine hydrochloride) was added to the homogenised tissue, and the light absorbance at 460 nm was detected by spectrophotometry, after which, MPO activity was calculated with reference to the standard curve of human MPO activity.

## COc1cc(O)cc(CCc2c(Cc3ccc(O)cc3)ccc(O)c2Cc2ccc(O)cc2)c1 [bletinib, 3,3′-dihydroxy-2′,6′-bis(p-hydroxybenzyl)-5-methoxybibenzyl]
[1]
  ROS scavenging activity in the cell-free xanthine and xanthine oxidase system: did not exhibit
[2]; 5 h after LPS spraying
  MPO activity in the mouse lung tissues: significantly ameliorated
  total protein levels in the mouse lung tissues: significantly ameliorated
[2]; intratracheal LPS for 5 h
  LPS-activated phosphorylation of Vav (p-Vav) in lung sections: attenuated
  LPS-induced NET formation (Ly6G+citH3+ cell accumulation) in lung: considerably reduced
  distortion of the pulmonary architecture (lung histology): significantly suppressed
